This passage reports Futter-aufnahme, Futter-verwer-tung and Zuwachs results from patent EP0119446A2, “Growth promoting aminophenylethyl amine derivatives” (BAYER AG, priority 1983, dated 1984).

This assay has as its system Ratten, weiblich. Briefly: Feeding trial in rats (feed intake, weight gain, feed conversion). Type of assay: in vivo, Ratten (SPF Wistar). Particulars: n = 6. The source says:
Die Tiere wurden 2 Tage an die neuen Haltungsbedingungen adaptiert, wobei generell das Versuchsfutter ohne Wirkstoffzusatz verabreicht wurde. Am dritten Versuchstag wurden die Tiere randomisiert und anschließend die Versuchsgruppen so gebildet, daß sowohl die Mittelwerte als auch die Streuungen in den Körpergewichten zwischen den Gruppen gleich waren. Nach einer 5-tägigen Vorperiode wurde eine 8-tägige Hauptperiode durchgeführt, in denen Futteraufnahme, Zuwachs und Futterverwertung bestimmt wurden.
Es wurden folgende Behandlungen geprüft: • b 1) Negativkontrolle (n = 12) • b 2) 25 ppm (Wirkstoff Beispiel 12) (n = 6)
Die Tiere wurden 2 Tage an die neuen Haltungsbedingungen adaptiert, wobei generell das Versuchsfutter ohne Wirkstoffzusatz verabreicht wurde. Am dritten Versuchstag wurden die Tiere randomisiert und anschließend die Versuchsgruppen so gebildet, daß sowohl die Mittelwerte als auch die Streuungen in den Körpergewichten zwischen den Gruppen gleich waren. Nach einer 5-tägigen Vorperiode wurde eine 7-tägige Hauptperiode durchgeführt, in denen Futteraufnahme, Zuwachs und Futterverwertung bestimmt wurden.
Es wurden folgende Behandlungen geprüft: • b 1) Negativkontrolle (n = 12) • b 2) 0,2 ppm (Wirkstoff Beispiel 12) (n = 6) • b 3) 10 ppm (Wirkstoff Beispiel 12) (n = 6)
Es wurden folgende Behandlungen geprüft: • b 1) Negativkontrolle (n = 12) • b 2) 25 ppm (Wirkstoff Beispiel 2) (n = 6)
Die Tiere wurden 2 Tage an die neuen Haltungsbedingungen adaptiert, wobei generell das Versuchsfutter ohne Wirkstoffzusatz verabreicht wurde. Am dritten Versuchstag wurden die Tiere randomisiert und anschließend die Versuchsgruppen so gebildet, daß sowohl die Mittelwerte als auch die Streuungen in den Körpergewichten zwischen den Gruppen gleich waren. Nach einer 7-tägigen Vorperiode wurde eine 7-tägige Hauptperiode durchgeführt, in denen Futteraufnahme, Zuwachs und Futterverwertung bestimmt wurden.
Es wurden folgende Behandlungen geprüft: • b 1) Negativkontrolle (n = 24) • b 2) 25 ppm (Wirkstoff Beispiel 2) (n = 6)
Es wurden folgende Behandlungen geprüft: • b 1) Negativkontrolle (n = 12) • b 2) 0,2 ppm (Wirkstoff Beispiel 1) (n = 6) • b 3) 10 ppm (Wirkstoff Beispiel 1) (n = 6)

Where [1] appears, read: 0,2 ppm in feed, whole test period 12 Tage (5-day pre-period + 7-day main period), negative control 200.
[2] abbreviates: 0,2 ppm in feed, whole test period 12 Tage, negative control 4,88.
Setting [3] is: 0,2 ppm in feed, whole test period 12 Tage, negative control 41,0.
[4] abbreviates: 10 ppm in feed, whole test period 12 Tage (5-day pre-period + 7-day main period), negative control 200.
Where [5] appears, read: 10 ppm in feed, whole test period 12 Tage, negative control 4,88.
Setting [6] is: 10 ppm in feed, whole test period 12 Tage, negative control 41,0.
Setting [7] is: 25 ppm in feed, whole test period 13 Tage (5-day pre-period + 8-day main period), negative control 174.
Setting [8] is: 25 ppm in feed, whole test period 13 Tage, negative control 5,06.
Setting [9] is: 25 ppm in feed, whole test period 13 Tage, negative control 35,4.

As for `Cc1cc(NCC(O)c2cc(Cl)c(N)c(Cl)c2)ccc1Oc1ccc(SC(F)(F)F)cc1` (stereo not drawn) [Bsp. 1], the Futter-aufnahme by setting is: under setting [1], 204 g; under setting [4], 206 g; under setting [7], 184 g. For the same compound, the Futter-verwer-tung is 4,25 g/g under setting [2], 4,46 g/g under setting [5] and 4,23 g/g under setting [8]. The Zuwachs is 47,9 g under setting [3], 46,2 g under setting [6] and 43,9 g under setting [9].
`Cc1cc(NCC(O)c2cc(Cl)c(N)c(Cl)c2)ccc1Oc1ccc(S(=O)(=O)C(F)(F)F)cc1` (stereo not drawn) [Bsp. 2]: the Futter-aufnahme is, setting by setting: under setting [7], 180 g; (25 ppm in feed, whole test period 14 Tage (7-day pre-period + 7-day main period), negative control 225) 233 g. Besides, the Futter-verwer-tung was 4,85 g/g under setting [8] and 4,88 g/g (25 ppm in feed, whole test period 14 Tage, negative control 5,30). The Zuwachs is on record as 37,5 g under setting [9] and 47,8 g (25 ppm in feed, whole test period 14 Tage, negative control 40,6).
As for `CC(C)C(C)[Si](C)(C)OC(CN(C(C)(C)C)[Si](C)(C)C(C)C(C)C)c1cc(Cl)c(N)c(Cl)c1` (stereo not drawn) [Bsp. 12], the Futter-aufnahme reads like this: under setting [1], 217 g; under setting [4], 204 g; under setting [7], 193 g. The Futter-verwer-tung is listed as 4,13 g/g under setting [2], 4,03 g/g under setting [5] and 3,77 g/g under setting [8]. Besides, the Zuwachs by setting is: under setting [3], 52,5 g; under setting [6], 50,7 g; under setting [9], 51,9 g.
